Test results: patent US8598314B2 (priority 2007, dated 2013)

How the values were obtained:
[1] = biological target: T1, human GIP receptor (HEK-GIPR) (Homo sapiens, UniProt P48546); experiment: GIP receptor binding (RBA) displacement assay; settings: for inhibition at 0.01 µM: read-out: GIP RBA % inhibition at 10 nM
T1 construct: expressed in transfected cells
T1 sequence (P48546 22-466): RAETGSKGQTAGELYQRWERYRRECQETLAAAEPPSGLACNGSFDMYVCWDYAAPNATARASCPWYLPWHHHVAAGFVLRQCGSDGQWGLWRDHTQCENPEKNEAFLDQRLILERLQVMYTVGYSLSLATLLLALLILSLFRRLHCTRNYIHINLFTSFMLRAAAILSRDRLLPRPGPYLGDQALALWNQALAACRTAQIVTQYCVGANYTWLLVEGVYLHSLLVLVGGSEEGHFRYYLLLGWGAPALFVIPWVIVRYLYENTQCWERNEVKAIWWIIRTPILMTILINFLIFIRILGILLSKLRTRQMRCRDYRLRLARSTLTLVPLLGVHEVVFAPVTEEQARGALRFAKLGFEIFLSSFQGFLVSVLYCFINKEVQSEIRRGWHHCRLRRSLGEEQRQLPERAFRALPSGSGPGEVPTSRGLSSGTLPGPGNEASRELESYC
Procedure: Membrane fractions were prepared from confluent cell cultures of HEK-GIPR, snap frozen, and stored at −80° C. until use. […] Reactions were allowed to proceed to equilibrium for 90 minutes at room temperature with constant shaking. The reaction mixtures were then filtered through 96-well glass fiber filter plates separating bound and unbound fractions of radioligand.

NIH/Swiss mice = experiment: Oral glucose tolerance test (OGTT), glucose lowering; assay type: in vivo; settings: 30 nM/kg, blood glucose
Procedure: . Test compounds were injected IP (t=0 min) immediately following baseline measurements of 2 hour fasted NIH/Swiss mice. Blood samples were taken at 60, 120, and 180 minutes after injection. In some assays, samples were also taken at 240 minutes after the injection. Blood glucose was measured with a One-Touch® Ultra® glucose meter (LifeScan, Inc., Milpitas, Calif.). […].
The tests were performed as described in Example 5.

| Molecule | inhibition at 0.01 µM [1] [%] | GIP RBA % inhibition at 10 nM ([1]; 10 nM conjugate, 30 pM 125I-GIP, relative to human GIP (100%)) [%] | OGTT (30 nM/kg) % maximal decrease (NIH/Swiss mice) [%] |
| --- | --- | --- | --- |
| CC[C@H](C)[C@H](NC(=O)[C@H](CO)NC(=O)[C@H](Cc1ccc(O)cc1)NC(=O)[C@H](CC(=O)O)NC(=O)[C@H](CO)NC(=O)[C@@H](NC(=O)[C@H](Cc1ccccc1)NC(=O)[C@@H](NC(=O)CNC(=O)[C@H](CCC(=O)O)NC(=O)[C@H](C)NC(=O)[C@H](Cc1ccc(O)cc1)NC(=O)COCCOCCNC(=O)COCCOCCNC(=O)CC[C@H](N)C(=O)N1CCC[C@H]1C#N)[C@@H](C)O)[C@@H](C)CC)C(=O)N[C@@H](C)C(=O)N[C@@H](CCSC)C(=O)N[C@@H](CC(=O)O)C(=O)N[C@@H](CCCCN)C(=O)N[C@H](C(=O)N[C@@H](Cc1c[nH]cn1)C(=O)N[C@@H](CCC(N)=O)C(=O)N[C@@H](CCC(N)=O)C(=O)N[C@@H](CC(=O)O)C(=O)N[C@@H](Cc1ccccc1)C(=O)N[C@H](C(=O)N[C@@H](CC(N)=O)C(=O)N[C@@H](Cc1c[nH]c2ccccc12)C(=O)N[C@@H](CC(C)C)C(=O)N[C@@H](CC(C)C)C(=O)N[C@@H](C)C(=O)N[C@@H](CCC(N)=O)C(=O)NC(CCCCN)C(N)=O)C(C)C)[C@@H](C)CC (stereo partly drawn) [N-(γ-L-Glu-2-(S)-cyanopyrrolidyl)-Ado-Ado) GIP(1-30)] | 32 | – | – |
| CC[C@H](C)[C@H](NC(=O)[C@H](CO)NC(=O)[C@H](Cc1ccc(O)cc1)NC(=O)[C@H](CC(=O)O)NC(=O)[C@H](CO)NC(=O)[C@@H](NC(=O)[C@H](Cc1ccccc1)NC(=O)[C@@H](NC(=O)CNC(=O)[C@H](CCC(=O)O)NC(=O)[C@@H](C)NC(=O)[C@@H](N)Cc1ccc(O)cc1)[C@@H](C)O)[C@@H](C)CC)C(=O)N[C@@H](C)C(=O)N[C@@H](CC(C)C)C(=O)N[C@@H](CC(=O)O)C(=O)N[C@@H](CCCCN)C(=O)N[C@H](C(=O)N[C@@H](Cc1c[nH]cn1)C(=O)N[C@@H](CCC(N)=O)C(=O)N[C@@H](CCC(N)=O)C(=O)N[C@@H](CC(=O)O)C(=O)N[C@@H](Cc1ccccc1)C(=O)N[C@H](C(=O)N[C@@H](CC(N)=O)C(=O)N[C@@H](Cc1c[nH]c2ccccc12)C(=O)N[C@@H](CC(C)C)C(=O)N[C@@H](CC(C)C)C(=O)N[C@@H](C)C(=O)N[C@@H](CCC(N)=O)C(=O)N[C@@H](CCCCN)C(=O)NCCC(=O)NCCC(=O)NCCCC[C@H](NC(=O)[C@@H]1CCC(=O)N1)C(=O)N[C@@H](Cc1c[nH]c2ccccc12)C(=O)N[C@@H](C)C(=O)N1CCC[C@H]1C(=O)O)C(C)C)[C@@H](C)CC [[^2D-Ala,^14Leu] GIP-(1-30)-β-Ala-β-Ala-Lys(α-NH-Pyroglutamoyl)-Trp-Ala-Pro-COOH] | 66 | – | – |
| CC[C@H](C)[C@H](NC(=O)[C@H](CO)NC(=O)[C@H](Cc1ccc(O)cc1)NC(=O)[C@H](CC(=O)O)NC(=O)[C@H](CO)NC(=O)[C@@H](NC(=O)[C@H](Cc1ccccc1)NC(=O)[C@@H](NC(=O)CNC(=O)[C@H](CCC(=O)O)NC(=O)[C@@H](C)NC(=O)[C@@H](N)Cc1ccc(O)cc1)[C@@H](C)O)[C@@H](C)CC)C(=O)N[C@@H](C)C(=O)N[C@@H](CCSC)C(=O)N[C@@H](CC(=O)O)C(=O)N[C@@H](CCCCN)C(=O)N[C@H](C(=O)N[C@@H](Cc1c[nH]cn1)C(=O)N[C@@H](CCC(N)=O)C(=O)N[C@@H](CCC(N)=O)C(=O)N[C@@H](CC(=O)O)C(=O)N[C@@H](Cc1ccccc1)C(=O)N[C@H](C(=O)N[C@@H](CC(N)=O)C(=O)N[C@@H](Cc1c[nH]c2ccccc12)C(=O)N[C@@H](CC(C)C)C(=O)N[C@@H](CC(C)C)C(=O)N[C@@H](C)C(=O)N[C@@H](CCC(N)=O)C(=O)N[C@@H](CCCCN)C(=O)NCCOCCOCC(=O)NCCOCCOCC(=O)NCCCCCCCCCCC(=O)NCCC(=O)NCCC(=O)NCCCC[C@H](NC(=O)[C@@H]1CCC(=O)N1)C(=O)N[C@@H](Cc1c[nH]c2ccccc12)C(=O)N[C@@H](C)C(=O)N1CCC[C@H]1C(=O)O)C(C)C)[C@@H](C)CC [[^2D-Ala]GIP-(1-30)-Ado-Ado-Aun-βAla-βAla-ε-NH-Lys(α-NH-Pyroglutamoyl)-Trp-Ala-Pro] | 70 | – | – |
| CC[C@H](C)[C@H](NC(=O)[C@H](CO)NC(=O)[C@H](Cc1ccc(O)cc1)NC(=O)[C@H](CC(=O)O)NC(=O)[C@H](CO)NC(=O)[C@@H](NC(=O)[C@H](Cc1ccccc1)NC(=O)[C@@H](NC(=O)CNC(=O)[C@H](CCC(=O)O)NC(=O)[C@@H](C)NC(=O)[C@@H](N)Cc1ccc(O)cc1)[C@@H](C)O)[C@@H](C)CC)C(=O)N[C@@H](C)C(=O)N[C@@H](CC(C)C)C(=O)N[C@@H](CC(=O)O)C(=O)N[C@@H](CCCCN)C(=O)N[C@H](C(=O)N[C@@H](Cc1c[nH]cn1)C(=O)N[C@@H](CCC(N)=O)C(=O)N[C@@H](CCC(N)=O)C(=O)N[C@@H](CC(=O)O)C(=O)N[C@@H](Cc1ccccc1)C(=O)N[C@H](C(=O)N[C@@H](CC(N)=O)C(=O)N[C@@H](Cc1c[nH]c2ccccc12)C(=O)N[C@@H](CC(C)C)C(=O)N[C@@H](CC(C)C)C(=O)N[C@@H](C)C(=O)N[C@@H](CCC(N)=O)C(=O)N[C@@H](CCCCN)C(=O)N1CCC[C@H]1C(=O)N[C@@H](CO)C(=O)N[C@@H](CO)C(=O)NCC(=O)N[C@@H](C)C(=O)N1CCC[C@H]1C(=O)N1CCC[C@H]1C(=O)N1CCC[C@H]1C(=O)N[C@@H](CO)C(=O)NCCOCCOCC(=O)NCCOCCOCC(=O)NCCCCCCCCCCC(=O)NCCC(=O)NCCC(=O)NCCCC[C@H](NC(=O)[C@@H]1CCC(=O)N1)C(=O)N[C@@H](Cc1c[nH]c2ccccc12)C(=O)N[C@@H](C)C(=O)N1CCC[C@H]1C(=O)O)C(C)C)[C@@H](C)CC [[^2D-Ala^14Leu] GIP(1-30)-exendin-4(31-39)-Ado-Ado-Aun-βAla-βAla-ε-NH-Lys(α-NH-Pyroglutamoyl)-Trp-Ala-Pro] | 86 | – | – |
| [^14Leu] GIP(1-30)-exendin-4(31-39)-Ado-Lys-N-ε-(2-(S)-cyano pyrrolidyl) | – | 99 | −24 |
